Laboratory results published in PubChem BioAssay (NCI).
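Interpolation was linear, between the two tested concentrations surrounding the appropriate level; five concentrations were tested over 48 hours in 96-well plates. TGI: total growth inhibition.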

Tests used:
Experiment in all cases: NCI tumour cell line growth inhibition, 48 h
[1] = test system: A549 NSCLC
[2] = test system: CCRF-CEM leukemia
[3] = test system: COLO 205 colon
[4] = test system: HCT-116 colon
[5] = test system: HCT-15 colon
[6] = test system: IGROV1 ovarian
[7] = test system: MALME-3M melanoma
[8] = test system: MCF7 breast
[9] = test system: MDA-MB-231 breast
[10] = test system: MDA-MB-435
[11] = test system: SK-MEL-28 melanoma
[12] = test system: SNB-19 CNS
[13] = test system: SW-620 colon
[14] = test system: TK-10 renal
[15] = test system: UACC-62 melanoma
[16] = test system: SF-539 CNS

SMILES | TGI [1] [µM] | TGI [2] [µM] | TGI [3] [µM] | TGI [4] [µM] | TGI [5] [µM] | TGI [6] [µM] | TGI [7] [µM] | TGI [8] [µM] | TGI [9] [µM] | TGI [10] [µM] | TGI [11] [µM] | TGI [12] [µM] | TGI [13] [µM] | TGI [14] [µM] | TGI [15] [µM] | TGI [16] [µM]
CC(O)CNC(=O)Nc1c(C(F)(F)F)cc(-c2ccccc2)[nH]c1=O (configuration not stated) | > 100 | > 100 | > 100 | > 100 | > 100 | > 100 | > 100 | > 100 | > 100 | > 100 | > 100 | > 100 | > 100 | > 100 | > 100 | –
C[N+](C)(C)CC(=O)N/N=C(\Cc1nc2ccc([N+](=O)[O-])cc2[nH]c1=O)C(=O)Nc1nc2ccc([N+](=O)[O-])cc2s1 | > 100 | > 100 | > 100 | > 100 | > 100 | > 100 | – | > 100 | > 100 | > 100 | > 100 | – | > 100 | > 100 | > 100 | > 100
CNc1cc([N+](=O)[O-])ccc1C(=O)N1CCC[C@H]1CO | > 100 | – | – | > 100 | > 100 | > 100 | – | > 100 | > 100 | > 100 | > 100 | > 100 | > 100 | > 100 | > 100 | > 100
O=c1[nH]c(=O)c2c([nH]1)[nH]c1ccc(Br)cc12 | > 100 | > 100 | > 100 | > 100 | > 100 | > 100 | > 100 | > 100 | > 100 | > 100 | – | > 100 | > 100 | > 100 | > 100 | > 100
c1ccc2sc(SSSc3nc4ccccc4s3)nc2c1 | > 100 | > 100 | > 100 | > 100 | > 100 | > 100 | > 100 | > 100 | > 100 | > 100 | > 100 | > 100 | > 100 | > 100 | > 100 | –
CC(Br)CN1CCOCC1 (configuration not stated) | > 100 | – | > 100 | > 100 | > 100 | > 100 | > 100 | > 100 | > 100 | > 100 | > 100 | > 100 | > 100 | > 100 | > 100 | > 100
Clc1sc(Cl)c2c1[C@H](Cl)C[C@@H]2Cl | 86.2 | > 100 | 62.2 | 20.9 | 41.3 | 38.6 | 59.6 | > 100 | 90.5 | 40.2 | 38.1 | – | 19.6 | 85.1 | 43.7 | 42.4
CCOC(=O)CN1C(=O)NC(C)(c2ccccc2)C1=O (configuration not stated) | > 100 | > 100 | > 100 | > 100 | > 100 | > 100 | – | > 100 | > 100 | > 100 | > 100 | > 100 | > 100 | > 100 | > 100 | > 100
COc1ccc(Cc2cc(Cc3ccc(OC)cc3)cc(Cc3ccc(OC)cc3)c2)cc1 | > 100 | – | – | > 100 | > 100 | > 100 | > 100 | > 100 | > 100 | > 100 | > 100 | > 100 | > 100 | > 100 | > 100 | > 100
C=C(C)C1CC[C@@](C)(O)[C@H](C#N)C1 (some centres not stated) | > 100 | > 100 | > 100 | > 100 | > 100 | – | > 100 | > 100 | > 100 | > 100 | > 100 | > 100 | > 100 | > 100 | > 100 | > 100
O=C1CSC(c2ccccc2O)N1c1ccc2c(c1)Oc1c(Cl)c3c(c(Cl)c1=N2)Oc1cc(N2C(=O)CSC2c2ccccc2O)ccc1N=3 (configuration not stated) | – | > 100 | – | > 100 | > 100 | > 100 | – | > 100 | > 100 | > 100 | > 100 | – | > 100 | > 100 | – | > 100
CCOC(=O)C1=C(C)N(c2ccc(Cl)cc2)C2(O)C=CC(=O)C3=C(O)c4ccccc4C(=O)C312 (configuration not stated) | 21.8 | 6.69 | 11.7 | 11.6 | 14 | 12.9 | 4.53 | 8.72 | 25 | 11.3 | – | 33.1 | 12.7 | 8.03 | 9.01 | 18.1
